One series concerns souris Swiss. The series can be described thus: Acute oral toxicity in mice (Lichfield and Wilcoxon method). It is filed as in vivo. The following applies: mortality over 7 days. An excerpt:
La toxicité aiguë des composés de l'invention a été déterminée par voie orale chez les souris Swiss des deux sexes, par la méthode de Lichfield et Wilcoxon. Des groupes de cinq souris de chaque sexe ont été traités par des doses croissantes du composé étudié et le taux de mortalité a été déterminé au cours des 7 jours suivant l'administration du produit.
On a trouvé les doses léthales (DL₅₀ en mg/kg) suivantes : […]

Series [1] is described as follows: Solubility of the product in solvents. It is filed as physicochemical. The following applies: free base (oily product).
[2] abbreviates: in benzène, éthanol, acétone, chloroforme.
Where [3] appears, read: in eau, n-hexane, éther isopropylique, éther éthylique.

For `Fc1ccc(C(Cn2ccnc2)c2ccccc2)cc1` (centres unmarked) [Exemple 2, 1-[2-(4-fluorophényl)-2-phényl éthyl]-1H-imidazole], the DL₅₀ is given as 465 (438-502) mg/kg in the series with souris Swiss (souris femelle) and 524 (457-538) mg/kg with souris Swiss (souris mâle). The results for the solubilité entry in series [1] (setting [2]) and in series [1] (setting [3]) were “soluble” and “insoluble”, respectively.
As for `Brc1ccc(C(Cn2ccnc2)c2ccccc2)cc1` (centres unmarked) [Exemple 1, 1-[2-(4-bromophényl)-2-phényléthyl]-1H-imidazole], the DL₅₀ in the series with souris Swiss (souris femelle) was 375 (350-400) mg/kg; with souris Swiss (souris mâle) it was 450 (400-475) mg/kg. The solubilité entry is recorded as “soluble” in series [1] (setting [2]) and “insoluble” in series [1] (setting [3]).

The values are drawn from patent EP0276583A1, “Imidazole derivatives, processes for their preparation and their fungicidal properties” (Instituto de Investigacion Y Desarrollo Quimico Biologico …, priority 1987, dated 1988).
